# Experimental data from ChEMBL document CHEMBL4414679, “Discovery of 4,6-pyrimidinediamine derivatives as novel dual EGFR/FGFR inhibitors aimed EGFR/FGFR1-positive NSCLC” (Eur J Med Chem, 2020).
# Active and inactive are the calls of the source. The calls are words filed in the database; no cut-off is given here.
# Columns and labels:
# [1] = biological target: T1, Fibroblast growth factor receptor 1 (Homo sapiens, UniProt P11362); test: Inhibition of N-terminal GST-tagged human FGFR1 expressed in baculovirus at 10 uM using FAM-labelled peptide as substrate pre-incubated for 10 mins followed by substrate addition by mobility shift assay relative to control
# NCI-H226 [2] = test: Antiproliferative activity against human NCI-H226 cells assessed as inhibition of cell growth at 10 uM incubated for 48 hrs by MTT assay relative to control; format: functional; settings: NCI-H226, 48 h
# [3] = Induction of apoptosis in gefitinib-insensitive human HCC827GR cells assessed as early apoptotic cells at 5 uM measured after 24 hrs by Annexin-V/propidium iodide staining-based flow cytometric analysis (reference value: 1.9%); format: functional
# [4] = biological target: T1, Fibroblast growth factor receptor 1; test: Inhibition of FGFR in serum-starved human H520 cells assessed as reduction in FGFR-induced AKT phosphorylation upto 10 uM incubated for 1 hr by Western blot analysis
# [5] = biological target: Proto-oncogene tyrosine-protein kinase Src (Homo sapiens) (UniProt P12931); test: Inhibition of full length N-terminal GST-tagged human SRC (1 to 536 AA) expressed in baculovirus at 10 uM using FAM-labelled peptide as substrate pre-incubated for 10 mins followed by substrate addition by mobility shift assay relative to control
# [6] = biological target: RAC-beta serine/threonine-protein kinase (Homo sapiens) (UniProt P31751); test: Inhibition of N-terminal GST tagged human AKT2 catalytic domain (120 to 481 AA) expressed in baculovirus at 10 uM using FAM-labelled peptide as substrate pre-incubated for 10 mins followed by substrate addition by mobility shift assay relative to control
# NCI-H1581 [7] = test: Antiproliferative activity against human NCI-H1581 cells assessed as inhibition of cell growth at 10 uM incubated for 48 hrs by MTT assay relative to control; format: functional; settings: NCI-H1581, 48 h
# [8] = biological target: Tyrosine-protein kinase JAK3 (Homo sapiens) (UniProt P52333); test: Inhibition of N-terminal GST tagged human JAK3 catalytic domain (795 to 1124 AA) expressed in baculovirus at 10 uM using FAM-labelled peptide as substrate pre-incubated for 10 mins followed by substrate addition by mobility shift assay relative to control
# Mus musculus = test: Down regulation of EGFR phosphorylation in BALB/c nude mouse xenografted with human HCC827GR cells at 15 mg/kg, ip dosed by western blot analysis; format: functional, organism-based
# [9] = AUC (0 to infinity) in Sprague-Dawley rat at 30 mg/kg, po measured upto 24 hrs by UPLC-MS/MS; format: ADME, organism-based; design: dose 30 mg/kg, route oral, time infinity; settings: in vivo
# NCI-H226 [10] = test: Induction of apoptosis in human NCI-H226 cells assessed as viable cells at 10 uM measured after 24 hrs by Annexin-V/propidium iodide staining-based flow cytometric analysis (reference value: 93.4%); format: functional; settings: NCI-H226, 24 h, read-out: Activity
# [11] = biological target: Hepatocyte growth factor receptor (Homo sapiens) (UniProt P08581); test: Inhibition of N-terminal GST-tagged human MET cytoplasmic domain (956 to 1360 AA) expressed in baculovirus at 10 uM using FAM-labelled peptide as substrate pre-incubated for 10 mins followed by substrate addition by mobility shift assay relative to control
# PC-9 [12] = test: Antiproliferative activity against human PC9 cells assessed as inhibition of cell growth at 10 uM incubated for 48 hrs by MTT assay relative to control; format: functional; settings: PC-9, 48 h
# [13] = Antitumor activity against human HCC827GR cells xenografted in BALB/c nude mouse assessed as reduction in tumor weight at 15 mg/kg, ip dosed every 2 days (reference value: 0.82 +/- 0.06 g); format: functional
# [14] = biological target: Cyclin-dependent kinase 5/CDK5 activator 1 (Homo sapiens) (UniProt Q00535+Q15078); test: Inhibition of CDK5/p35 (unknown origin) at 10 uM using FAM-labelled peptide as substrate pre-incubated for 10 mins followed by substrate addition by mobility shift assay relative to control; format: protein-complex assay
# [15] = biological target: Epidermal growth factor receptor (Homo sapiens, UniProt P00533, L858R); test: Inhibition of recombinant human EGFR L858R mutant expressed in baculovirus using FAM-labelled peptide as substrate pre-incubated for 10 mins followed by substrate addition by mobility shift assay
# PC-9 [16] = test: Antiproliferative activity against human PC9 cells incubated for 48 hrs by MTT assay; format: functional, cell-based; settings: PC-9, 48 h
# [17] = biological target: Fibroblast growth factor receptor 3 (Homo sapiens) (UniProt P22607); test: Inhibition of N-terminal GST tagged human FGFR3 cytoplasmic domain (436 to 806 AA) expressed in baculovirus at 10 uM using FAM-labelled peptide as substrate pre-incubated for 10 mins followed by substrate addition by mobility shift assay relative to control
# [18] = Induction of apoptosis in gefitinib-insensitive human HCC827GR cells assessed as late apoptotic cells at 2.5 uM measured after 24 hrs by Annexin-V/propidium iodide staining-based flow cytometric analysis (reference value: 1.5%); format: functional
# [19] = Induction of apoptosis in gefitinib-insensitive human HCC827GR cells assessed as early apoptotic cells at 2.5 uM measured after 24 hrs by Annexin-V/propidium iodide staining-based flow cytometric analysis (reference value: 1.9%); format: functional
# NCI-H1581 [20] = test: Antiproliferative activity against human NCI-H1581 cells incubated for 48 hrs by MTT assay; format: functional, cell-based; settings: NCI-H1581, 48 h
# NCI-H226 [21] = test: Induction of apoptosis in human NCI-H226 cells assessed as necrotic cells at 10 uM measured after 24 hrs by Annexin-V/propidium iodide staining-based flow cytometric analysis (reference value: 3%); format: functional
# [22] = biological target: CDK6/cyclin D3 (Homo sapiens) (UniProt P30281+Q00534); test: Inhibition of N-terminal GST tagged truncated human CDK6 (1 to 326 AA) coexpressed with CyclinD3 (1 to 292 AA) in baculovirus at 10 uM using FAM-labelled peptide as substrate pre-incubated for 10 mins followed by substrate addition by mobility shift assay relative to control; format: protein-complex assay
# [23] = biological target: Tyrosine-protein kinase JAK2 (Homo sapiens) (UniProt O60674); test: Inhibition of N-terminal GST tagged human JAK2 catalytic domain (826 to 1132 AA) expressed in baculovirus at 10 uM using FAM-labelled peptide as substrate pre-incubated for 10 mins followed by substrate addition by mobility shift assay relative to control
# [24] = biological target: T1, Fibroblast growth factor receptor 1; test: Inhibition of N-terminal GST-tagged human FGFR1 cytoplasmic domain (398-822 AA) expressed in baculovirus at 10 uM using FAM-labelled peptide as substrate pre-incubated for 10 mins followed by substrate addition by mobility shift assay relative to control
# HCC827 = test: Antiproliferative activity against human HCC827 cells incubated for 48 hrs by MTT assay; format: functional, cell-based; settings: HCC827, 48 h
# [25] = biological target: Epidermal growth factor receptor (Homo sapiens, UniProt P00533); test: Inhibition of EGFR in serum-starved human HCC827 cells assessed as reduction in EGF-induced AKT phosphorylation upto 10 uM incubated for 1 hr by Western blot analysis; format: cell-based
# [26] = biological target: Mitogen-activated protein kinase 8 (Homo sapiens) (UniProt P45983); test: Inhibition of human full length His-tagged JNK1 expressed in baculovirus expression system at 10 uM using FAM-labelled peptide as substrate pre-incubated for 10 mins followed by substrate addition by mobility shift assay relative to control
# T1 sequence (P11362 22-822 limits assumed): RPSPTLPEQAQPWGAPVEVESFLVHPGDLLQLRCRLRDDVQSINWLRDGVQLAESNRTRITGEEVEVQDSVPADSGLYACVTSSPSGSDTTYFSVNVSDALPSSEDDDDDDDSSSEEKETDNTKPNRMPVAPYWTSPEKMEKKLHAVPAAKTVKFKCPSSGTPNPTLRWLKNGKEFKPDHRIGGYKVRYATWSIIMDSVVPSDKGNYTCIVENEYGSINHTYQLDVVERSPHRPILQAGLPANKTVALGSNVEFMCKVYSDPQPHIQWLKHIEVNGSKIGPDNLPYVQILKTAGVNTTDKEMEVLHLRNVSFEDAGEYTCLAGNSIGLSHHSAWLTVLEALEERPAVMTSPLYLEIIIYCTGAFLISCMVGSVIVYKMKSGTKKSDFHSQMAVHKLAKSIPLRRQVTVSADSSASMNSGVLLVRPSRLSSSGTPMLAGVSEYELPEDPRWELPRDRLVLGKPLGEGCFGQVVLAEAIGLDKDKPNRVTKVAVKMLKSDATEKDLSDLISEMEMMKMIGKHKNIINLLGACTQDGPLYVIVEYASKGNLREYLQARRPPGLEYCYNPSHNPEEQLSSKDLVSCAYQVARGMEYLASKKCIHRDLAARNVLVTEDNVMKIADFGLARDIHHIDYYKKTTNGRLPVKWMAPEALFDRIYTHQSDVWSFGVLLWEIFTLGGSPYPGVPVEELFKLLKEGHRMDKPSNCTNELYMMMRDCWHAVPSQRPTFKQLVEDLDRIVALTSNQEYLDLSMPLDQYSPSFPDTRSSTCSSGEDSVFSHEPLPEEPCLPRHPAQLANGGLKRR
# Chain of Epidermal growth factor receptor (Homo sapiens, UniProt P00533) (P00533 whole entry): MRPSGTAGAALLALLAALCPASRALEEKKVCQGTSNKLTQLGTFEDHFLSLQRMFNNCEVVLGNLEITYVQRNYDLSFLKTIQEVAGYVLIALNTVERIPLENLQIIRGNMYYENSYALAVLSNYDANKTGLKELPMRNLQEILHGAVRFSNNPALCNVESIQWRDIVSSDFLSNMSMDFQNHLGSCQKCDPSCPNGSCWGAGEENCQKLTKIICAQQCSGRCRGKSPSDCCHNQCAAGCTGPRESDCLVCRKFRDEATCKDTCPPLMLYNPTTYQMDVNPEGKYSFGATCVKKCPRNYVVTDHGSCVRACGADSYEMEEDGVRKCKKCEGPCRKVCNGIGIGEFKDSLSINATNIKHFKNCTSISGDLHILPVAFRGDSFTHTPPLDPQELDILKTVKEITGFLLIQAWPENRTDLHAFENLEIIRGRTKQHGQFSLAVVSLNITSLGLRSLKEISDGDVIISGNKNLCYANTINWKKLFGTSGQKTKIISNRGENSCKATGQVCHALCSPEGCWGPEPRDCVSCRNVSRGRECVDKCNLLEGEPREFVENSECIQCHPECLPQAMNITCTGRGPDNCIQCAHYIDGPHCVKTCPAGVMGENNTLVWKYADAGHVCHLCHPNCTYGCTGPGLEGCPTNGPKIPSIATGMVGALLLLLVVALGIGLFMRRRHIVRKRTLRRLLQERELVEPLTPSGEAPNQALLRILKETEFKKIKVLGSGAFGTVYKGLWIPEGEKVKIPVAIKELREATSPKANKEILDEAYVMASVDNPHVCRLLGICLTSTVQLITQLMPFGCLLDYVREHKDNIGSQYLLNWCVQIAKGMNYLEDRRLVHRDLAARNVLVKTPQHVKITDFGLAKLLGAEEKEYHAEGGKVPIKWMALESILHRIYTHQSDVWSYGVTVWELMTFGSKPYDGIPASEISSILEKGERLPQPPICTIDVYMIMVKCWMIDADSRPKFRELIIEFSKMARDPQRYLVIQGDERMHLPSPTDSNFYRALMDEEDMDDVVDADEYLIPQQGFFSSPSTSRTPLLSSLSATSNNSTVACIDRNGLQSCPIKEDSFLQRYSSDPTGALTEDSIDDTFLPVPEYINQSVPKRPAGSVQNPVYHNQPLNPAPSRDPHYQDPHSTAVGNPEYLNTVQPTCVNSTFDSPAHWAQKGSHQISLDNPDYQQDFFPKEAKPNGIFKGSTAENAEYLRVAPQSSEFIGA
# Chain of Epidermal growth factor receptor (Homo sapiens, UniProt P00533, L858R) (P00533 25-1210 L858R limits assumed): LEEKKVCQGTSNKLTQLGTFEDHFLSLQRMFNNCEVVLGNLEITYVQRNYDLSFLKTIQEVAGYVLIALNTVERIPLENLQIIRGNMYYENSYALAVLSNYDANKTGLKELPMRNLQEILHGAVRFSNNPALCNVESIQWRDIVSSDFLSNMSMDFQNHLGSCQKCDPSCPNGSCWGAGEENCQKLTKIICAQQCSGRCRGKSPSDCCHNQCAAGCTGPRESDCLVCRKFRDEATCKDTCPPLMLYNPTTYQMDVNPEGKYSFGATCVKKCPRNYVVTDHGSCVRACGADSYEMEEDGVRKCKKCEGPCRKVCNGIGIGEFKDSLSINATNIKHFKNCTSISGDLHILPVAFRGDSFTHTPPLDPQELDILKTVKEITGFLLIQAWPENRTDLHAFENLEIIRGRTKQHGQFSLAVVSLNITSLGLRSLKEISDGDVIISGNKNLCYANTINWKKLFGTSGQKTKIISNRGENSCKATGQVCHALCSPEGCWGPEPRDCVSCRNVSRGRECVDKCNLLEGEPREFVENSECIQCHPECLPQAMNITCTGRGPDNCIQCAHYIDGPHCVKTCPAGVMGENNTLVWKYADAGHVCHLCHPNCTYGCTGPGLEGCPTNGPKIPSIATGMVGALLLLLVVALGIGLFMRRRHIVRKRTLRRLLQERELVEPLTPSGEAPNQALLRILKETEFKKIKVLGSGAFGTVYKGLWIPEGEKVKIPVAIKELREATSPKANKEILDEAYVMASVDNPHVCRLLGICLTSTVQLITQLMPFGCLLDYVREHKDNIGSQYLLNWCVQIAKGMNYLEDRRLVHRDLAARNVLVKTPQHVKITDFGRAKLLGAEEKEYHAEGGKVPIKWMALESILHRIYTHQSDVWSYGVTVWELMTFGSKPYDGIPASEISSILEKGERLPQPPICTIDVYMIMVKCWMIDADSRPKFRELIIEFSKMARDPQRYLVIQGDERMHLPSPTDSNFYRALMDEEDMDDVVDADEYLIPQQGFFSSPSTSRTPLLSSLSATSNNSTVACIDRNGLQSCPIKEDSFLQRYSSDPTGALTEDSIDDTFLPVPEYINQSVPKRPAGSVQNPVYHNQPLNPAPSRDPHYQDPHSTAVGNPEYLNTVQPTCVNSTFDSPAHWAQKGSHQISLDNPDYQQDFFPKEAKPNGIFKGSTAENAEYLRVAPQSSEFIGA
# Chain of Tyrosine-protein kinase JAK3 (Homo sapiens) (P52333 whole entry, the tested form may be a part): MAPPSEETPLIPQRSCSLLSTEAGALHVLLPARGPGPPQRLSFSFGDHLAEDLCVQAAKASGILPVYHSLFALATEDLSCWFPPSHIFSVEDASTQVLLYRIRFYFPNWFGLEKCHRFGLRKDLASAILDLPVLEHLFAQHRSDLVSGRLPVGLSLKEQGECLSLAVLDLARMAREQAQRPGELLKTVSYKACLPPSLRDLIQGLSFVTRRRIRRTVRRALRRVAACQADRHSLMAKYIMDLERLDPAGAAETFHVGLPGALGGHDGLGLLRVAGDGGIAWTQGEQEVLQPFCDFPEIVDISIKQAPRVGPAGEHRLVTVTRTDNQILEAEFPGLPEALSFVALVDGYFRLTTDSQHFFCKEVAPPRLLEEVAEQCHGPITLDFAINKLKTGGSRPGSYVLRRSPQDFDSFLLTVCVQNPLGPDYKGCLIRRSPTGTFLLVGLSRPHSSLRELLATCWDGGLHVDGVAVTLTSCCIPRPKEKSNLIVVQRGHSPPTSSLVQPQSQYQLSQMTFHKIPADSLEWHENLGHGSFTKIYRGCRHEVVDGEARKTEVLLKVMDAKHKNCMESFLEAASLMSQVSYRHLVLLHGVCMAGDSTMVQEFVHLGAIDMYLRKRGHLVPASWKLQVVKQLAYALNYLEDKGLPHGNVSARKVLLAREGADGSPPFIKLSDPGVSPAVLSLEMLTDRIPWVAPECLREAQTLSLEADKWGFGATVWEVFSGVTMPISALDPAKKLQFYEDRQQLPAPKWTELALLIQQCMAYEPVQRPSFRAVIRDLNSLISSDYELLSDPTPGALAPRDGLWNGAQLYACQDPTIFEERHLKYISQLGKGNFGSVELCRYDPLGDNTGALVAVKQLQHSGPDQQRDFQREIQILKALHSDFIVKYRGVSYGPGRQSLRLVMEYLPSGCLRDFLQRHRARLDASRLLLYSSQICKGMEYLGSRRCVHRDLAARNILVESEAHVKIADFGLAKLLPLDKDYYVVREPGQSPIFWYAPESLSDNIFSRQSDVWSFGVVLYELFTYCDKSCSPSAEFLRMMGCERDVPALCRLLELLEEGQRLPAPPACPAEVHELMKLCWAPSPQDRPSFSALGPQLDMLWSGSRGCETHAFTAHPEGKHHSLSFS
# Chain of Proto-oncogene tyrosine-protein kinase Src (Homo sapiens) (P12931 2-536 limits assumed): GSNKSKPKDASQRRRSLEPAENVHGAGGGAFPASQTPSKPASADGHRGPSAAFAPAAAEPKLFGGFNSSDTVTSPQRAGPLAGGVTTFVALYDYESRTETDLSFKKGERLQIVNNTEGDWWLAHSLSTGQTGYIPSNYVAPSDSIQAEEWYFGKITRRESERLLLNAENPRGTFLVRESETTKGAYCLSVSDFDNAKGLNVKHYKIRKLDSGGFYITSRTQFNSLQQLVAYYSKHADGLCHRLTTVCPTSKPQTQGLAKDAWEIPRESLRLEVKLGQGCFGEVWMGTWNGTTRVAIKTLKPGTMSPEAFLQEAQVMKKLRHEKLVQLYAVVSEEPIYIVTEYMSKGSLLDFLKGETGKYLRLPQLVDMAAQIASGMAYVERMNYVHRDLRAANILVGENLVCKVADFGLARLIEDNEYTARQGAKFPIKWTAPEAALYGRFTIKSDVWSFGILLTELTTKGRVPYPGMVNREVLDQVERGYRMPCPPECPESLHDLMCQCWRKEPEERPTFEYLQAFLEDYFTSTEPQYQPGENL
structure (smiles),measurement,setting,value
COc1ccc(OC)c(Nc2cc(NC(=O)Nc3c(Cl)cccc3Cl)ncn2)c1,inhibition,[1],85.2%
same,inhibition at 10 µM,NCI-H226 [2],81.7%
same,Activity,[3],1.7%
same,inhibition,[4],Active
same,inhibition,[5],45.8%
same,inhibition,[6],12.7%
same,inhibition at 10 µM,NCI-H1581 [7],93.1%
same,inhibition,[8],3.36%
same,Activity,Mus musculus,Active
same,AUC(0-inf),[9],13000 ng·h/mL
same,viability at 10 µM,NCI-H226 [10],71.9%
same,inhibition,[11],-0.39%
same,inhibition at 10 µM,PC-9 [12],95%
same,Activity,[13],0.41 g
same,inhibition,[14],-2.81%
same,IC50,[15],39 nM
same,IC50,PC-9 [16],1340 nM
same,inhibition,[17],15.8%
same,Activity,[18],13.5%
same,Activity,[19],2.5%
same,IC50,NCI-H1581 [20],2530 nM
same,Activity,NCI-H226 [21],11.8%
same,inhibition,[22],9.31%
same,inhibition,[23],13.9%
same,inhibition,[24],88.5%
same,IC50,HCC827,1250 nM
same,inhibition,[25],Active
same,inhibition,[26],3.79%
